Results on 18 molecules are retold here after PMC11323271 (Journal of Chemical Information and Modeling, 2024).

In brackets after ≈: the same amount, converted by molar mass. Entries after “also recorded” stand apart in the source; their conditions may differ.

For data set [1], the system named is M. tuberculosis H37Ra. As to the kind of experiment: microbe, parasite or virus in culture. Conditions: for MIC: Mycobacterium tuberculosis, H37RA, 168 h, read-out: MIC against M. tuberculosis H37Ra. It is filed as cell-based, Mycobacterium tuberculosis.
Data set [2] relates to M. tuberculosis H37Ra. The following applies: previous virtual screening work; cited from earlier work.
The target in data set [3] is M. tuberculosis DNA gyrase holoenzyme (GyrB ATPase activity) (Mycobacterium tuberculosis, UniProt P9WG45). Description: biochemical. Conditions: for IC50 for inhibition of M. tuberculosis DNA gyrase ATPase activity / IC50: triplicate, at least 11 inhibitor concentrations; for IC50: read-out: IC50 for inhibition of M. tuberculosis DNA gyrase ATPase activity.
M. tuberculosis DNA gyrase holoenzyme (GyrB ATPase activity), sequence (P9WG45 whole entry, looked up): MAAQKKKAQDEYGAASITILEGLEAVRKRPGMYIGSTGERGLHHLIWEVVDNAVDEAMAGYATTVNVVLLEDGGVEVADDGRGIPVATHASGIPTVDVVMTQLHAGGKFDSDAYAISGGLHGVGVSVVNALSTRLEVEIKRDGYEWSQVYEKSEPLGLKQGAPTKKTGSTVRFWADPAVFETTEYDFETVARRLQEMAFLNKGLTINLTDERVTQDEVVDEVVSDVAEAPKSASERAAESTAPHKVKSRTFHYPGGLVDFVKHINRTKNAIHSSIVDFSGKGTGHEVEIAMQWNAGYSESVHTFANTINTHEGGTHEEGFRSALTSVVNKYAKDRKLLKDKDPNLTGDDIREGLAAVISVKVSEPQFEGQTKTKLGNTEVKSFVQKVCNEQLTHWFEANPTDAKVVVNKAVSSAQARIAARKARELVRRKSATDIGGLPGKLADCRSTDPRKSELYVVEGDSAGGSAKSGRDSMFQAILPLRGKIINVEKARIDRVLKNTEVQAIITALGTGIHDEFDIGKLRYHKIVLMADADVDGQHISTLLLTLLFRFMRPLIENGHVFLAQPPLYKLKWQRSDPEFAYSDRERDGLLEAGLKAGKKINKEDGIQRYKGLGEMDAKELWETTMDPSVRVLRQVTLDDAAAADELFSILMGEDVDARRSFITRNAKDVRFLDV
For data set [4], the system named is Caco-2 cells. As to the kind of experiment: In vitro cytotoxicity, MTT assay. It is filed as cell-based. Here is the method:
Caco-2 cells (ATCC no. HTB-37) were used for cytotoxicity testing of selected compounds as described in our previous work.[32] Cell viability of tested compounds on Caco-2 cells was determined using 3-(4,5-dimethylthiazol-2-yl)-2,5-diphenyltetrazolium bromide (MTT) following a modified assay procedure.[52] Absorbance was measured at 590 nm using a microplate reader (Infinite M200 PRO, Tecan Group Ltd., Switzerland). The experiment was performed in triplicate and compound concentrations at which cells retained a viability of more than 80% were considered as nontoxic to cells.[53]
Figure S1. Hit compound cytotoxicity against Caco-2 cells. Cells were incubated with different concentrations of compounds (1 (A), 2 (B), 3 (C), 8 (D), 11 (E), 14 (F), G24 (G), and G26 (H)) for 24 h and viability measured by MTT assay. Data are presented as the mean ± SD (n = 6). The yellow bars represent the maximum concentrations at which compounds are non-cytotoxic towards Caco-2 cells.
(1 picture or pasted object on this page, not shown here)
Background: Tetrazolium dyes change colour on reduction, which living cells bring about.

Data set [5] deals with M. tuberculosis H37Rv. Conditions: cited from earlier work.
The test system of data set [6] is M. tuberculosis. The following applies: cited from earlier work.

Take `CO[C@@H]1[C@@H](OC(N)=O)[C@@H](O)[C@H](Oc2ccc3c(O)c(NC(=O)c4ccc(O)c(CC=C(C)C)c4)c(=O)oc3c2C)OC1(C)C` [Novobiocin, reference compound]: in data set [1], the “MIC against M. tuberculosis H37Ra” value is > 100 µg/mL and the MIC is > 100 µg/mL. Moreover, the “MIC against M. tuberculosis (previous work)” value in data set [2] is reported as “exceeding 100 μg/mL”.
With `Cc1cc(C)c2c(c1)c(-c1ccccc1)c(-c1ccccc1)n2CC(O)CN1CCOCC1` (stereo not shown) [Compound 12], in data set [1], the MIC was found to be 12.5 µg/mL (≈ 28.4 µM). For the same molecule, in data set [3], the “IC50 for inhibition of M. tuberculosis DNA gyrase ATPase activity” value (“IC50 for inhibition” below) was “inactive; also recorded: absence of observable ATPase inhibition”.
For `Cc1ccc2c(c1)c(-c1ccccc1)c(-c1ccccc1)n2CC(O)CNC(CO)(CO)CO` (stereo not shown) [Compound 14], the MIC in data set [1] turned out to be 6.2 µg/mL (≈ 13.5 µM). In data set [3], the “IC50 fold better than novobiocin” value was 16 fold and the IC50 (usually the concentration that inhibits the measured activity by half) was 80 nM. For the same molecule, in data set [4] (human, Caco-2, 24 h), the “maximum non-cytotoxic concentration toward Caco-2 cells” value came out at 12.5 µg/mL.
With `OC(CNCc1ccco1)Cn1c(-c2ccccc2)c(-c2ccccc2)c2ccc3ccccc3c21` (stereo not shown) [Compound 10], the MIC in data set [1] came to 3.1 µg/mL (≈ 6.56 µM). The “IC50 for inhibition” value in data set [3] was “inactive; also recorded: absence of observable ATPase inhibition”.
On to `OC(CNCCC1C=Nc2ccccc21)Cn1c2ccccc2c2ccccc21` (stereo not shown) [Compound 1], for which, in data set [1], the MIC is 6.2 µg/mL (≈ 16.2 µM). Further, the half-maximal inhibitory concentration (IC50) in data set [3] was 730 nM. Also, in data set [4] (human, Caco-2, 24 h), the “maximum non-cytotoxic concentration toward Caco-2 cells” value is 25.0 µg/mL.
`OCCNCC(O)Cn1c(-c2ccccc2)c(-c2ccccc2)c2ccc3ccccc3c21` (stereo not shown) [Compound 11]: in data set [1], the MIC was found to be 3.1 µg/mL (≈ 7.1 µM). Further, in data set [3], the “IC50 fold better than novobiocin” value was determined as 2 fold and the concentration for half-maximal inhibition (IC50) is 560 nM. Further, the “maximum non-cytotoxic concentration toward Caco-2 cells” value in data set [4] (human, Caco-2, 24 h) was determined as 0.87 µg/mL.
As to `CCc1ccc(NCC(O)Cn2c3ccccc3c3ccccc32)cc1` (stereo not shown) [Compound 6], in data set [1], the MIC was > 100 µg/mL.
For the molecule `COc1ccc(CCNCC(O)Cn2c3ccccc3c3ccccc32)cc1OC` (stereo not shown) [AF-399/41048884], the half-inhibitory concentration (IC50) in data set [5] is 10600 nM.
Turning to `OC(CNCc1ccccc1)Cn1c2ccccc2c2ccccc21` (stereo not shown) [Compound 3], in data set [1], the MIC came out at 12.5 µg/mL (≈ 37.8 µM). Further, the IC50 in data set [3] stood at 3820 nM. Moreover, the “maximum non-cytotoxic concentration toward Caco-2 cells” value in data set [4] (24 h, MTT, viability of more than 80% considered nontoxic) was 12.5 µg/mL.
In the case of `OC(CN1CCOCC1)Cn1c(-c2ccccc2)c(-c2ccccc2)c2ccc3ccccc3c21` (stereo not shown) [Compound 9], the MIC in data set [1] amounted to 12.5 µg/mL (≈ 27 µM). The “IC50 for inhibition” value in data set [3] was “inactive; also recorded: absence of observable ATPase inhibition”.
`Cc1ccc(NCC(O)Cn2c3ccccc3c3ccccc32)cc1Cl` (stereo not shown) [Compound 4]: the MIC in data set [1] was > 100 µg/mL.
Turning to `Cc1ccc2c(c1)c(-c1ccccc1)c(-c1ccccc1)n2CC(O)CN(CCO)CCO` (stereo not shown) [G24, reference compound], the MIC in data set [1] was found to be 12.5 µg/mL (≈ 28.1 µM). Also, the half-inhibitory concentration (IC50) in data set [3] turned out to be 2690 nM. In addition, the “maximum non-cytotoxic concentration, fold higher than for G26” value in data set [4] (human, 24 h) amounted to 15 fold. Also, the “maximum non-cytotoxic concentration toward Caco-2 cells” value in data set [4] (human, Caco-2, 24 h) amounted to 25 µg/mL. Also, the “MIC against M. tuberculosis (previous work)” value in data set [2] is 12.5 µg/mL (≈ 28.1 µM).
With `Cc1ccc2c(c1)c(-c1ccccc1)c(-c1ccccc1)n2CC(O)CN1CCOCC1` (stereo not shown) [Compound 13], the MIC in data set [1] is 12.5 µg/mL (≈ 29.3 µM). For the same molecule, in data set [3], the “IC50 for inhibition” value was “inactive; also recorded: absence of observable ATPase inhibition”.
`CCn1c2ccccc2c2cc(CNCCNCC(C)O)ccc21` (stereo not shown) [Compound 8]: the MIC in data set [1] is 25 µg/mL (≈ 76.8 µM). Also, in data set [3], the “ATPase inhibition, fold more effective than carbazole derivative 1” value is listed as “approximately 3 fold”; the “ATPase inhibition, fold more effective than carbazole derivative 2” value is recorded as ~5 fold; the “ATPase inhibition, fold more effective than carbazole derivative 3” value was ~15 fold; the “IC50 fold better than novobiocin” value came out at 5 fold. For the same molecule, in data set [3], the IC50 was 260 nM. For the same molecule, the “maximum non-cytotoxic concentration toward Caco-2 cells” value in data set [4] (human, Caco-2, 24 h) came to 12.5 µg/mL.
With `Cc1ccc(NCC(O)Cn2c3ccccc3c3ccccc32)cc1` (stereo not shown) [Compound 7], in data set [1], the MIC is > 100 µg/mL.
In the case of `OC(CNCCOc1ccccc1)Cn1c2ccccc2c2ccccc21` (stereo not shown) [Compound 2], the MIC in data set [1] was found to be 6.2 µg/mL (≈ 17.2 µM). The IC50 in data set [3] came out at 1340 nM. Further, the “maximum non-cytotoxic concentration toward Caco-2 cells” value in data set [4] (human, Caco-2, 24 h) turned out to be 12.5 µg/mL.
Take `OC(CN1CCN(c2ccccn2)CC1)Cn1c2ccccc2c2ccccc21` (stereo not shown) [AG-690/11353646]: in data set [6], the IC50 is 36100 nM.
As to `O=C(NNCC(O)Cn1c2ccccc2c2ccccc21)c1ccccc1` (stereo not shown) [Compound 5], the MIC in data set [1] is > 100 µg/mL.
